Experimental data reported in paper PMC10104807, “Modulation of tau tubulin kinases (TTBK1 and TTBK2) impacts ciliogenesis” (Scientific Reports, 2023).

Key:
Assay in all cases: DiscoverX scanMAX binding assay
CIT = biological target: T1, CIT (Homo sapiens, UniProt O14578); conditions: 1 μM
T1 construct: purchased Eurofins (radiometric) / Eurofins DiscoverX scanMAX / Reaction Biology / SignalChem
From the text: (§1) This panel includes 403 wild-type (WT) human kinases but not TTBK1/2. […] Substantial overlap between the MRC and DiscoverX scanMAX kinase panels allows the comparison of results for the same kinases in two different assay formats (enzymatic versus binding, respectively) at the same concentration. Selectivity results are included in two columns within Table 1. […] The rightmost column converts this selectivity score into the number of kinases with a PoC < 10 in the scanMAX panel.
(§2) The Eurofins DiscoverX Corporation scanMAX assay platform was employed to assess the selectivity of specific analogs at a single concentration (1 µM). As described previously, this assay platform profiles a compound against 403 wild-type human kinases and delivers percent of control (PoC) values. These percent of control values are included in Table 1 and corresponding kinome tree diagrams as well as tables for each analog included in Fig. S1.

PIP5K2C = biological target: T2, PIP5K2C (Homo sapiens, UniProt Q8TBX8); conditions: 1 μM
T2 construct: purchased Eurofins (radiometric) / Eurofins DiscoverX scanMAX / Reaction Biology / SignalChem
T2 sequence (Q8TBX8 1-421): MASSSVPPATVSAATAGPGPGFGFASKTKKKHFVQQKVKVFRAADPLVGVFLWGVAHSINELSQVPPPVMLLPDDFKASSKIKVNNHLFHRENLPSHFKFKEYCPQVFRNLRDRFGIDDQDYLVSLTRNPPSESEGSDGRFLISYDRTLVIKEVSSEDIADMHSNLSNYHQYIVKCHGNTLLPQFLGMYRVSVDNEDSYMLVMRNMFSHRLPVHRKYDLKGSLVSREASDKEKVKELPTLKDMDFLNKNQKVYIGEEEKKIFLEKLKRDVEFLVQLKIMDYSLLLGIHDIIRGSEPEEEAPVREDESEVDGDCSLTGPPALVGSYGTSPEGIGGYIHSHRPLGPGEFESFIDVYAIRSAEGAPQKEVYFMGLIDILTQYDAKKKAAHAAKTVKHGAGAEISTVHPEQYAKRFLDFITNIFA
From the text: as §1, §2

PKNB(M.tuberculosis) = biological target: T3, PKNB(M.tuberculosis) (Mycobacterium tuberculosis, UniProt P9WI81); conditions: for PKNB(M.tuberculosis) % control at 1000nM: 1 μM
T3 construct: purchased Eurofins (radiometric) / Eurofins DiscoverX scanMAX / Reaction Biology / SignalChem
From the text: as §1, §2

TAOK1 = biological target: T4, TAOK1 (Homo sapiens, UniProt Q7L7X3); conditions: 1 μM
T4 construct: purchased Eurofins
T4 sequence (Q7L7X3 1-1001): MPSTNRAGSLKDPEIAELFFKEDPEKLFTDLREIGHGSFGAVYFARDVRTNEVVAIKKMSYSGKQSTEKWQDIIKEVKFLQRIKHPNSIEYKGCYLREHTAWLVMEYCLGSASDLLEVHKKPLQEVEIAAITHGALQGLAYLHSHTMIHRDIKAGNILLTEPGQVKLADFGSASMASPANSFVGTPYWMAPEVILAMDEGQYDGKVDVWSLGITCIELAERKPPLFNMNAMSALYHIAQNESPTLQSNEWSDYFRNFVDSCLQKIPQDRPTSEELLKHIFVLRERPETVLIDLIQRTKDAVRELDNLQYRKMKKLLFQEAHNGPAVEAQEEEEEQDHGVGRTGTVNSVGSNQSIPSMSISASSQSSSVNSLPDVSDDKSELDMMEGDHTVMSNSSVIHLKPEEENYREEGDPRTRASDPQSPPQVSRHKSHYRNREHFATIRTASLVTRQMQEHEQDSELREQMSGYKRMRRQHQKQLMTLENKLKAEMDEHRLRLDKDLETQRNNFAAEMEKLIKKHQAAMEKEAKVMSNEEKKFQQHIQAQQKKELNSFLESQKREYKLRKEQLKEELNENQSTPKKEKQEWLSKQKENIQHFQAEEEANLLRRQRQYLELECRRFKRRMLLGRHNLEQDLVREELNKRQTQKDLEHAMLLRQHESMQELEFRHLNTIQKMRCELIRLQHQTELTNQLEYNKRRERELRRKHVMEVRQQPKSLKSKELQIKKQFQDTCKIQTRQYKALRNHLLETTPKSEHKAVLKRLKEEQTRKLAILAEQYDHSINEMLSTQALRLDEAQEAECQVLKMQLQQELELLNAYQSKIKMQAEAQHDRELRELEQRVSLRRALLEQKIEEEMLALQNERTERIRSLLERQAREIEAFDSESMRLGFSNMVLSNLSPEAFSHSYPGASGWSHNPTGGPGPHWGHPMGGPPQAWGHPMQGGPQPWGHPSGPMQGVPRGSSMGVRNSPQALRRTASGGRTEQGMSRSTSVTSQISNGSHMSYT
From the text: as §1, §2

TAOK3 = biological target: T5, TAOK3 (Homo sapiens, UniProt Q9H2K8); conditions: for TAOK3 % control at 1000nM: 1 μM
T5 construct: purchased Eurofins (radiometric) / Eurofins DiscoverX scanMAX / Reaction Biology / SignalChem
T5 sequence (Q9H2K8 1-898): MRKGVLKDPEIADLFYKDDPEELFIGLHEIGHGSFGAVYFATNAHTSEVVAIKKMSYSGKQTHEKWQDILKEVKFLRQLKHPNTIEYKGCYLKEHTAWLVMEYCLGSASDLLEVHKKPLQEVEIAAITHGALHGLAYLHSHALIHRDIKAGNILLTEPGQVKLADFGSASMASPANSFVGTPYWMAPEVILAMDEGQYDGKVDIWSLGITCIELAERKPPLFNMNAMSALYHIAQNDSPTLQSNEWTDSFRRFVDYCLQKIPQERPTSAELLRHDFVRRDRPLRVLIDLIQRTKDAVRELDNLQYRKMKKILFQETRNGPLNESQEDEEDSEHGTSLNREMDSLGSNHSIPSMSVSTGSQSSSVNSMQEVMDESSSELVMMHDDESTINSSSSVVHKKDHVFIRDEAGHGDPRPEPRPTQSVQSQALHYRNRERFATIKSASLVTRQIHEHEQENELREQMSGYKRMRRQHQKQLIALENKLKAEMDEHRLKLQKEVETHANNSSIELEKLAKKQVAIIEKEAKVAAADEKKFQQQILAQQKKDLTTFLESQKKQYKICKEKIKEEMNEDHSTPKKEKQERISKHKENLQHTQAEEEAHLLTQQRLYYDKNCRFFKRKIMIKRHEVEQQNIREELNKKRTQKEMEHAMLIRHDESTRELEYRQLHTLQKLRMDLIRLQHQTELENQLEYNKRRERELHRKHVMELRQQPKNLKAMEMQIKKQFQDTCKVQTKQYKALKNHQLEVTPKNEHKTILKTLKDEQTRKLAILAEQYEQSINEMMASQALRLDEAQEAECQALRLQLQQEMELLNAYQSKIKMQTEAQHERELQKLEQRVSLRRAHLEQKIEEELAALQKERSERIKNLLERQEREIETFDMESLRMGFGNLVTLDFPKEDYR
From the text: as §1, §2

T3 sequence (P9WI81 whole entry): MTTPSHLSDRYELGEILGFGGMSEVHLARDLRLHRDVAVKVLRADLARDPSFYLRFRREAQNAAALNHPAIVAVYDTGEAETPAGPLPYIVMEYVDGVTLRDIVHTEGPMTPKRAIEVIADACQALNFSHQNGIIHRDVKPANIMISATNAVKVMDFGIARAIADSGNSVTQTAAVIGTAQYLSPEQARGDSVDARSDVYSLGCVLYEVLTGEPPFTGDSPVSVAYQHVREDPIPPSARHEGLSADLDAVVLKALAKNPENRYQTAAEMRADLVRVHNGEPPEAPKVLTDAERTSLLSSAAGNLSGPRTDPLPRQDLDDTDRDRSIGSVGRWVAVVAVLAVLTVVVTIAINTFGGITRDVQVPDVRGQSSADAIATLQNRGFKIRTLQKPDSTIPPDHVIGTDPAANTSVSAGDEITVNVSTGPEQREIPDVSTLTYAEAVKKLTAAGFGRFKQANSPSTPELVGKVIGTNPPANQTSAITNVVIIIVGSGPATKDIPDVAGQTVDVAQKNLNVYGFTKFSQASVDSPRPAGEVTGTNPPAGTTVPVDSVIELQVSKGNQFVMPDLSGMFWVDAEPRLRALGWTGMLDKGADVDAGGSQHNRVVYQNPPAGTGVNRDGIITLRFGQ
T1 sequence (O14578 whole entry): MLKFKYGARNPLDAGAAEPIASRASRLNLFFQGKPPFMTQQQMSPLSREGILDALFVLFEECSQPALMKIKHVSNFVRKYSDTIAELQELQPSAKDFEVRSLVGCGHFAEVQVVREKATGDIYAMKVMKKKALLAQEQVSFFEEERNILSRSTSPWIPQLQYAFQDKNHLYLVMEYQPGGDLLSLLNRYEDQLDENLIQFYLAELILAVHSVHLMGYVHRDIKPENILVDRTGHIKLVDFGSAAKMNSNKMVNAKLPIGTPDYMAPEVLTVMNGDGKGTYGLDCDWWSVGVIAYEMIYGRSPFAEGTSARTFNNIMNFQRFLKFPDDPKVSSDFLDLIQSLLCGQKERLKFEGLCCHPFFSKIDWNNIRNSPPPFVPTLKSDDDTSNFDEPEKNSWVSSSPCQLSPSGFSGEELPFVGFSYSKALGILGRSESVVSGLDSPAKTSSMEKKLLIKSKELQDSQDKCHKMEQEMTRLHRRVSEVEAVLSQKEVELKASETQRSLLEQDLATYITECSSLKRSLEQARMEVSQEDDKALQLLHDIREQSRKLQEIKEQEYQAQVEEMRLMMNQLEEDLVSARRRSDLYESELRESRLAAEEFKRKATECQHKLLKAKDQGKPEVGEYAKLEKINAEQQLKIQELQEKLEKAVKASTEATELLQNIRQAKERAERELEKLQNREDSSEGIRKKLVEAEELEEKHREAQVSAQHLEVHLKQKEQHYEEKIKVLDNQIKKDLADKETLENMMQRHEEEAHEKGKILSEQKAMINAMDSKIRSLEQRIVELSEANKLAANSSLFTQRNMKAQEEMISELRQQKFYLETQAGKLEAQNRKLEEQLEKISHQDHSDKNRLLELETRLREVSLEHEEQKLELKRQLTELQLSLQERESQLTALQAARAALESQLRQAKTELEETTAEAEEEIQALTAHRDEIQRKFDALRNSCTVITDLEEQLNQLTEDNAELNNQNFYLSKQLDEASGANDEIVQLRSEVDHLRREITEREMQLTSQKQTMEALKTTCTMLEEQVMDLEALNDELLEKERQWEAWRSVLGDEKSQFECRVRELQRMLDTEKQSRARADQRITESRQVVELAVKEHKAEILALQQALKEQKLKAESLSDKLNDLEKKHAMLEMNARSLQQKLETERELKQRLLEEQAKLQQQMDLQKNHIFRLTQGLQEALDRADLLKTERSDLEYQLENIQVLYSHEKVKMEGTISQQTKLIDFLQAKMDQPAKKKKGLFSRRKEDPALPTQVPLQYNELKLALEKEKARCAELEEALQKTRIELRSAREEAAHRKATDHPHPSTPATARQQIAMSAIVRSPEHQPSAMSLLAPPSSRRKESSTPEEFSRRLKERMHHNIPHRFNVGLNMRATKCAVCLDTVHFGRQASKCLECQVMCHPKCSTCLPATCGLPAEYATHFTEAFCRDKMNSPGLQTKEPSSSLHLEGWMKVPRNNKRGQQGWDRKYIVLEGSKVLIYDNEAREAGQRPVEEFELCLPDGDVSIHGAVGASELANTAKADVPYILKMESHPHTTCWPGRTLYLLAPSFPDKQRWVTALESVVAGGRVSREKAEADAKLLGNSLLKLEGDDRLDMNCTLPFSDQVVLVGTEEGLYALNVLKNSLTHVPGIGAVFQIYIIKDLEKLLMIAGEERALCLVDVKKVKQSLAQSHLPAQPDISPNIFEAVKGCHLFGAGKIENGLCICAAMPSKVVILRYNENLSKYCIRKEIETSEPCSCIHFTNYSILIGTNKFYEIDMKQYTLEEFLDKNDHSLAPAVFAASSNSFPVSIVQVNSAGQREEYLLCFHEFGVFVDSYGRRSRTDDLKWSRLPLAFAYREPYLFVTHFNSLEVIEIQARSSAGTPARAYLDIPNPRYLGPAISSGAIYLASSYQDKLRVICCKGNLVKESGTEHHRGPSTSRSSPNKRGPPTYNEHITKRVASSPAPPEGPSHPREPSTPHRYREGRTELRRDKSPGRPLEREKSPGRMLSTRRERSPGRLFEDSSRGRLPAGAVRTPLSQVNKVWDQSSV

## CC(C)(O)C#Cc1ccc2[nH]c3c(c2c1)-c1nc(N)ncc1CC3 [Compound 1]
CIT
  CIT (CRIK) % control at 1000nM / DiscoverX PoC value: 0 % control
PIP5K2C
  PIP5K2C (PI5P4Kγ) % control at 1000nM / DiscoverX PoC value: 0 % control
PKNB(M.tuberculosis)
  PKNB(M.tuberculosis) % control at 1000nM: 1.7 % control
TAOK1
  TAOK1 % control at 1000nM / DiscoverX PoC value: 1.2 % control
TAOK3
  TAOK3 % control at 1000nM: 1.5 % control

## CC(C)(O)C#Cc1ccc2[nH]cc(-c3ccnc(N)n3)c2c1 [Compound 3]
CIT
  CIT (CRIK) % control at 1000nM / DiscoverX PoC value: 0 % control
PIP5K2C
  PIP5K2C (PI5P4Kγ) % control at 1000nM / DiscoverX PoC value: 0.2 % control
PKNB(M.tuberculosis)
  PKNB(M.tuberculosis) % control at 1000nM: 0.9 % control
TAOK1
  TAOK1 % control at 1000nM / DiscoverX PoC value: 2.1 % control
TAOK3
  TAOK3 % control at 1000nM: 0.4 % control

## CC(C)(O)C#Cc1ccc2[nH]c3c(c2c1)-c1nc(N)ncc1CCC3 [AMG28, reference compound]
CIT
  CIT (CRIK) % control at 1000nM / DiscoverX PoC value: 1.3 % control
PIP5K2C
  PIP5K2C (PI5P4Kγ) % control at 1000nM / DiscoverX PoC value: 3.1 % control
PKNB(M.tuberculosis); read-out: PKNB(M.tuberculosis) % control at 1000nM
  kinase binding, % of control at 1 µM: 0.1%
TAOK1
  TAOK1 % control at 1000nM / DiscoverX PoC value: 3.2 % control
TAOK3; read-out: TAOK3 % control at 1000nM
  kinase binding, percent of control at 1 µM: 1.8%
